Measured values: patent US20140148454A1, “SUBSTITUTED AMINO-ACRYLCARBOXAMIDES AS KCNQ2/3 MODULATORS” (GRÜNENTHAL GMBH, priority 2012, published 2014)

Molecular target: T1, KCNQ2/3 channels (Homo sapiens, UniProt O43525+O43526)
T1 construct: expressed in transfected cells; host or cells: CHO-K1 cells kept under selection antibiotics
Experiment: Fluorescence assay using a voltage sensitive dye (fluorimetry)
Type: cell-based
Conditions: CHO-K1 cells expressing KCNQ2/3 channels; for Emax: relative to retigabine = 100%, read-out: Fluorimetry % efficacy (retigabine = 100%); for EC50: voltage-sensitive dye, read-out: Fluorimetry EC50/IC50
Description: Method I. Fluorescence Assay Using a Voltage Sensitive Dye (Fluorimetry) […] CHO-K1 cells expressing KCNQ2/3 channels are cultivated adherently at 37° C., 5% CO2 and 95% humidity in cell culture bottles (e.g. 80 cm^2 TC flasks, Nunc) with DMEM-high glucose (Sigma Aldrich, D7777) including 10% FCS (PAN Biotech, e.g. 3302-P270521) or alternatively MEM Alpha Medium (1×, liquid, Invitrogen, #22571), 10% fetal calf serum (FCS) (Invitrogen, #10270-106, heat-inactivated) and the necessary selection antibiotics.
Before being sown out for the measurements, the cells are washed with 1×DPBS buffer Ca^2+/Mg^2+-free (e.g. Invitrogen, #14190-094) and detached from the bottom of the culture vessel by using Accutase (PAA Laboratories, #L11-007) (incubation with Accutase for 15 min at 37° C.). The cell number is determined using a CASY™ cell counter (TCC, Scharfe System). Depending on the optimal density for each individual cell line, 20,000-30,000 cells/well/100 μl are seeded onto 96-well Corning™ CeIIBIND™ assay plates (Flat Clear Bottom Black Polystyrene Microplates, #3340). Freshly seeded cells are then left to settle for one hour at room temperature, followed by incubation for 24 hours at 37° C., 5% CO2 and 95% humidity.
The voltage-sensitive fluorescent dye from the Membrane Potential Assay Kit (Red™ Bulk format part R8123 for FLIPR, MDS Analytical Technologies™) is prepared by dissolving the contents of one vessel Membrane Potential Assay Kit Red Component A in 200 ml of extracellular buffer (ES buffer, 120 mM NaCl, 1 mM KCl, 10 mM HEPES, 2 mM CaCl2, 2 mM MgCl2, 10 mM glucose; pH 7.4). After removal of the nutrient medium, the cells are washed once with 200 μl of ES buffer, then loaded for 45 min at room temperature in 100 μl of dye solution in the dark.
Fluorescence measurements are carried out in a BMG Labtech FLUOstar™, BMG Labtech NOVOstar™ or BMG Labtech POLARstar™ instrument (525 nm excitation, 560 nm emission, Bottom Read mode). After incubation with the dye, 50 μl of the test substances in the desired concentrations, or 50 μl of ES buffer for control purposes, are applied to the wells of the assay plate and incubated for 30 min at room temperature while being shielded from light. The fluorescence intensity of the dye is then measured for 5 min and the fluorescence value F1 of each well is thus determined at a given, constant time. 15 μl of a KCl solution are then added to each well (final concentration of potassium ions 92 mM). The change in fluorescence intensity is subsequently monitored until all the relevant values have been obtained (mainly 5-30 min). At a given time post KCl application, a fluorescence value F2 is determined, in this case at the time of the fluorescence peak.
For calculation, the fluorescence intensity F2 is corrected for the fluorescence intensity F1, and the activity (ΔF/F) of the target compound on the potassium channel is determined as follows:
In order to determine whether a substance has agonistic activity, is determined by adding to the well only the buffer solution instead of the test substance, determining the value F1K of the fluorescence intensity, adding the potassium ions as described above, and measuring a value F2K of the fluorescence intensity. F2K and F1K are then calculated as follows: […]
A substance has an agonistic activity on the potassium channel if it is possible to conclude that a target compound has agonistic activity if Calculations of EC50 and IC50 values are carried out with the aid of ‘Prism v4.0’ software (GraphPad Software™).

Structure (SMILES) | Emax | EC50
CCOc1cc(N2CCOCC2)nc(C)c1C(=O)NCCCC(C)(C)C [Example 5, N-(4,4-Dimethyl-pentyl)-4-ethoxy-2-methyl-6-morpholin-4-yl-pyridine-3-carboxylic acid amide] | 218% | 1.35 µM
CCSc1cc(N2CCOC[C@H]2C)nc(C)c1C(=O)NCCCC(C)(C)C [Example 15, N-(4,4-Dimethyl-pentyl)-4-ethylsulfanyl-2-methyl-6-[(3R)-3-methyl-morpholin-4-yl]-pyridine-3-carboxylic acid amide] | 247% | 0.082 µM
CCSc1cc(N2CCOCC2)nc(C)c1C(=O)NCc1ccc(F)cc1 [Example 12, 4-Ethylsulfanyl-N-[(4-fluorophenyl)-methyl]-2-methyl-6-morpholin-4-yl-pyridine-3-carboxylic acid amide] | 145% | 1.47 µM
COc1nc(N2CCOCC2)nc(OC)c1C(=O)NCc1ccc(Cl)cc1 [Example 2, N-[(4-Chlorophenyl)-methyl]-4,6-dimethoxy-2-morpholin-4-yl-pyrimidine-5-carboxylic acid amide] | 147% | 0.315 µM
CN(c1nc(C(F)(F)F)c(C(=O)NCc2ccc(Cl)cc2)s1)C1CCOCC1 [Example 38, N-[(4-Chlorophenyl)-methyl]-2-(methyl-tetrahydro-pyran-4-yl-amino)-4-(trifluoromethyl)-thiazole-5-carboxylic acid amide] | 102% | 1.26 µM
CCC(C)c1nc(N2CCOCC2)cnc1C(=O)NCc1ccc(Cl)cc1 (centres unmarked) [Example 20, N-[(4-Chlorophenyl)-methyl]-3-(1-methyl-propyl)-5-morpholin-4-yl-pyrazine-2-carboxylic acid amide] | 88% | 0.217 µM
CCSc1cc(N2CCOC[C@H]2C)nc(C)c1C(=O)NCc1ccc(Cl)cc1 [Example 14, N-[(4-Chlorophenyl)-methyl]-4-ethylsulfanyl-2-methyl-6-[(3R)-3-methyl-morpholin-4-yl]-pyridine-3-carboxylic acid amide] | 176% | 0.194 µM
CCSc1nc(N2CCOCC2)nc(C)c1C(=O)NCc1cccc(F)c1 [Example 10, 4-Ethylsulfanyl-N-[(3-fluorophenyl)-methyl]-6-methyl-2-morpholin-4-yl-pyrimidine-5-carboxylic acid amide] | 165% | 0.14 µM
CN(c1nc(C(F)(F)F)c(C(=O)NCc2cccc(OC(F)(F)F)c2)s1)C1CCOCC1 [Example 36, 2-(Methyl-tetrahydro-pyran-4-yl-amino)-4-(trifluoromethyl)-N-[[3-(trifluoromethyloxy)-phenyl]-methyl]-thiazole-5-carboxylic acid amide] | 125% | 1.1 µM
Cc1nc(N2CCOCC2)cc(C(C)C)c1C(=O)NCc1ccc(Cl)cc1 [Example 17, N-[(4-Chlorophenyl)-methyl]-4-isopropyl-2-methyl-6-morpholin-4-yl-pyridine-3-carboxylic acid amide] | 180% | 0.499 µM
CC(NC(=O)c1sc(N(C)C2CCOCC2)nc1C(F)(F)F)c1cccc(OC(F)(F)F)c1 (centres unmarked) [Example 35, 2-(Methyl-tetrahydro-pyran-4-yl-amino)-4-(trifluoromethyl)-N-[1-[3-(trifluoromethyloxy)-phenyl]-ethyl]-thiazole-5-carboxylic acid amide] | 131% | 1.27 µM
CC(C)c1nc(N(C)C2CCOCC2)sc1C(=O)NCc1ccc(Cl)cc1 [Example 23, N-[(4-Chlorophenyl)-methyl]-4-isopropyl-2-(methyl-tetrahydro-pyran-4-yl-amino)-thiazole-5-carboxylic acid amide] | 98% | 1.14 µM
CCSc1cc(N2CCOCC2)nc(C)c1C(=O)NCCCC(C)(C)C [Example 13, N-(4,4-Dimethyl-pentyl)-4-ethylsulfanyl-2-methyl-6-morpholin-4-yl-pyridine-3-carboxylic acid amide] | 241% | 0.319 µM
CC(C)c1nc(N(C)CC2CCOCC2)sc1C(=O)NC(C)c1cccc(OC(F)(F)F)c1 (centres unmarked) [Example 22, 4-Isopropyl-2-[methyl-(tetrahydro-pyran-4-yl-methyl)-amino]-N-[1-[3-(trifluoromethyloxy)-phenyl]-ethyl]-thiazole-5-carboxylic acid amide] | 78% | 0.459 µM
CCSc1cc(N2CCOCC2)nc(C)c1C(=O)NCc1ccc(Cl)cc1 [Example 3, N-[(4-Chlorophenyl)-methyl]-4-ethylsulfanyl-2-methyl-6-morpholin-4-yl-pyridine-3-carboxylic acid amide] | 171% | 0.564 µM
CCC(C)c1nc(N2CCOCC2)cnc1C(=O)NCCC1CCCC1 (centres unmarked) [Example 21, N-(2-Cyclopentyl-ethyl)-3-(1-methyl-propyl)-5-morpholin-4-yl-pyrazine-2-carboxylic acid amide] | 132% | 1.05 µM
CC(C)c1nc(N2CCOCC2)sc1C(=O)NCc1ccc(Cl)cc1 [Example 25, N-[(4-Chlorophenyl)-methyl]-4-isopropyl-2-morpholin-4-yl-thiazole-5-carboxylic acid amide] | 48% | 1.26 µM
CCSc1nc(N2CCOCC2)nc(C)c1C(=O)NCc1ccc(Cl)cc1 [Example 1, N-[(4-Chlorophenyl)-methyl]-4-ethylsulfanyl-6-methyl-2-morpholin-4-yl-pyrimidine-5-carboxylic acid amide] | 137% | 0.136 µM
CC(C)c1nc(N2CCOCC2)cnc1C(=O)NCc1ccc(Cl)cc1 [Example 7, N-[(4-Chlorophenyl)-methyl]-3-isopropyl-5-morpholin-4-yl-pyrazine-2-carboxylic acid amide] | 109% | 0.482 µM
Cc1nc(N2CCOCC2)cc(C2CC2)c1C(=O)NCc1ccc(Cl)cc1 [Example 16, N-[(4-Chlorophenyl)-methyl]-4-cyclopropyl-2-methyl-6-morpholin-4-yl-pyridine-3-carboxylic acid amide] | 178% | 1.42 µM
CC(NC(=O)c1sc(N2CCOCC2)nc1C(F)(F)F)c1cccc(OC(F)(F)F)c1 (centres unmarked) [Example 40, 2-Morpholin-4-yl-4-(trifluoromethyl)-N-[1-[3-(trifluoromethyloxy)-phenyl]ethyl]-thiazole-5-carboxylic acid amide] | 78% | 1.28 µM
CC(C)c1nc(N(C)C2CCOCC2)sc1C(=O)NC(C)c1cccc(OC(F)(F)F)c1 (centres unmarked) [Example 9, 4-Isopropyl-2-(methyl-tetrahydro-pyran-4-yl-amino)-N-[1-[3-(trifluoromethyloxy)-phenyl]ethyl]-thiazole-5-carboxylic acid amide] | 104% | 0.379 µM
